This is an account of results in US7935722B2 (Eli Lilly and Company, priority 2005, dated 2011).

Read-outs that look alike come from different tables or passages of the source.

Assay [1] concerns the target T1, human AR (androgen receptor) (Homo sapiens, UniProt P10275).
T1 construct: expressed in transfected cells; host or cells: 293 cells (293-AR lysate)
T1 sequence (P10275 1-920): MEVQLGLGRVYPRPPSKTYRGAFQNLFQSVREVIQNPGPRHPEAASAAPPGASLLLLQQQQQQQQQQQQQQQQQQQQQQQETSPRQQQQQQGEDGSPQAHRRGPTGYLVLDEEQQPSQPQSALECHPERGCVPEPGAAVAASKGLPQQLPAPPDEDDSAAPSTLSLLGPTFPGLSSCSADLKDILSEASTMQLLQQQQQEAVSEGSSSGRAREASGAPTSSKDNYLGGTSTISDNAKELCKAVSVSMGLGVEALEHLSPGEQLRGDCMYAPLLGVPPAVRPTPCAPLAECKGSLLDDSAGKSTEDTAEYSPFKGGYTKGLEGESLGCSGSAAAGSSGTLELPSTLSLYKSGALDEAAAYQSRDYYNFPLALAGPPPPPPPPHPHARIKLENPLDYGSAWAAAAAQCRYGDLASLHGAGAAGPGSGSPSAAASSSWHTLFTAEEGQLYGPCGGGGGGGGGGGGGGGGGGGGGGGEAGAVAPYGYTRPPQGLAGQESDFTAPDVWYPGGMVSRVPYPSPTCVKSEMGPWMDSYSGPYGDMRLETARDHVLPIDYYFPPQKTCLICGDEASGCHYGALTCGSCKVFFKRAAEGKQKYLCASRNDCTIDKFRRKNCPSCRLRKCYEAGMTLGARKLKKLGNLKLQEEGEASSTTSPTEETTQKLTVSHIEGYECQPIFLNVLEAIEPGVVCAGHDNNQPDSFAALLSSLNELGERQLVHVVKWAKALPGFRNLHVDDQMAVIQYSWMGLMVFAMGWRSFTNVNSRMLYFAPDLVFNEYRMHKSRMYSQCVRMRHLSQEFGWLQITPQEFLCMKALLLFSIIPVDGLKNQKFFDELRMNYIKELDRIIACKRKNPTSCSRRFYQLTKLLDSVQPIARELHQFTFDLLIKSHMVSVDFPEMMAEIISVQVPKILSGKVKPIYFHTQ
Kind of assay: Steroid hormone nuclear receptor binding assay, AR binding. The protocol: Cell lysates from 293 cells overexpressing human GR (glucocorticoid receptor), AR (androgen receptor), MR (mineralocorticoid receptor) or PR (progesterone receptor) are used for competition binding assays to determine Ki values for test compounds. […] Competing compounds are added at various concentrations ranging from about 0.01 nM to 10 μM. Non-specific binding is determined in the presence of 500 nM dexamethasone for GR binding, 500 nM aldosterone for MR binding, or 500 nM methyltrienolone for AR and PR binding. The binding reaction (140 μl) is incubated for overnight at 4° C., then 70 μl of cold charcoal-dextran buffer (containing per 50 ml of assay buffer, 0.75 g of charcoal and 0.25 g of dextran) is added to each reaction. Plates are mixed 8 minutes on an orbital shaker at 4° C. Plates are then centrifuged at 3,000 rpm at 4° C. for 10 minutes. An aliquot of 120 μl of the mix is transferred to another 96-well plate and 175 μl of Wallac Optiphase “Hisafe 3” scintillation fluid is added to each well. Plates are sealed and shaken vigorously on an orbital shaker. After an incubation of 2 hrs, plates are read in a Wallac Microbeta counter. […] The Kd for ^3H-dexamethasone for GR binding, ^3H-methyltrienolone for AR binding, ^3H-aldosterone for MR binding, or ^3H-methyltrienolone for PR binding, is determined by saturation binding. The IC50 values for test compounds are converted to Ki using Cheng-Prusoff equation and the Kd determined by saturation binding assay. […]

The target in assay [2] is T2, human androgen receptor (AR) (Homo sapiens, UniProt P10275).
T2 construct: expressed in transfected cells; host or cells: mouse myoblast C2C12 cells, transiently co-transfected
T2 sequence (P10275 1-920): T1 sequence (P10275 1-920)
In words: C2C12 AR/ARE reporter assay. Type of assay: cell-based. On the procedure:
As an indicator of agonist activity in muscle tissue, the C2C12 AR/ARE reporter assay is performed. Briefly, mouse myoblast C2C12 cells are co-transfected using FuGENE™. […] Cells are transfected in T150 cm^2 flasks in DMEM media with 4% or 10% Fetal Bovine Serum […]. After a 5 hour incubation, transfected cells are trypsinized, plated in 96 well dishes in DMEM media containing 10% charcoal-stripped FBS, incubated for 2 h and then exposed to various concentrations of test compounds ranging from about 0.01 nM to 10 μM. After 48 h of incubations with compounds, cells are lysed and luciferase activity is determined using standard techniques. Data is fit to a 4 parameter-fit logistics to determine EC50 values. The % efficacy is determined versus maximum stimulation obtained with 10 nM methyltrienolone. […]
Background: In a reporter assay the amount or activity of a reporter protein is the signal.

[3] abbreviates: C2C12, read-out: C2C12 % Efficacy.
The mark [4] stands for this setting: average of n trials, read-out: AR binding Ki.
Where [5] appears, read: C2C12 AR/ARE reporter assay, average of n trials, read-out: C2C12 % Efficacy.
[6] abbreviates: C2C12 AR/ARE reporter assay, average of n trials, read-out: C2C12 EC50.

A word on the Ki: it is the dissociation constant of the complex between target and ligand, obtained from inhibition or displacement. The term EC50 denotes the midpoint of the concentration-response curve. For `COc1ccccc1Cn1c2c(c3cc(C#N)ccc31)CC(NC(=O)C(C)C)CC2` (stereo not drawn) [Example 105, N-[6-Cyano-9-(2-methoxy-benzyl)-2,3,4,9-tetrahydro-1H-carbazol-3-yl]-isobutyramide], the affinity in assay [1], expressed as Ki, was 7.7 nM. In assay [2], this compound yielded an EC50 of 30.7 nM. The Emax in assay [2] (setting [3]) was determined as 97.5%.

For the compound `CC(C)C(=O)NC1CCc2c(c3cc(Cl)ccc3n2Cc2ccccc2N)C1` (stereo not drawn) [Example 106, N-[9-(2-Amino-benzyl)-6-chloro2,3,4,9-tetrahydro-1H-carbazol-3-yl]-isobutyramide], in assay [1] (setting [4]), the Ki amounted to 8.2 nM. Also, the Emax in assay [2] (setting [5]) was 82.1%. The EC50 in assay [2] (setting [6]) came to 2.3 nM.

Compound `CC(C)C(=O)NC1CCc2c(c3cc(C#N)ccc3n2Cc2ccccc2O)C1` (stereo not drawn) [Example 107, N-[6-Cyano-9-(2-hydroxy-benzyl)-2,3,4,9-tetrahydro-1H-carbazol-3-yl]-isobutyrarmide] registered a Ki in assay [1] of 3.1 nM. This compound also had an EC50 in assay [2] of 0.5 nM. The Emax in assay [2] (setting [3]) was found to be 86.2%.

In assay [1], `CC(C)C(=O)NC1CCc2c(c3cc(C#N)ccc3n2Cc2ccccc2[N+](=O)[O-])C1` (stereo not drawn) [Example 108, N-[6-Cyano-9-(2-nitro-benzyl)-2,3,4,9-tetrahydro-1H-carbazol-3-yl]-isobutyramide] registered an inhibition constant (Ki) of 57.3 nM. This compound registered an EC50 in assay [2] of 718 nM. Also, the Emax in assay [2] (setting [3]) is 58.4%.

Turning to `CC(C)C(=O)NC1CCc2c(c3cc(C#N)ccc3n2Cc2ccccc2N)C1` (stereo not drawn) [Example 109, N-[9-(2-Amino-benzyl)-6-cyano-2,3,4,9-tetrahydro-1H-carbazol-3-yl]-isobutyramide], in assay [1], the Ki was determined as 15.9 nM. Also, the response in assay [2] was half-maximal at 2.3 nM (EC50). The Emax in assay [2] (setting [3]) came to 76.9%.

Compound `CCNc1ccccc1Cn1c2c(c3cc(C#N)ccc31)CC(NC(=O)C(C)C)CC2` (stereo not drawn) [Example 112, N-[6-Cyano-9-(2-ethylamino-benzyl)-2,3,4,9-tetrahydro-1H-carbazol-3-yl]-isobutyramide] registered a Ki in assay [1] of 12.7 nM. Besides, the midpoint of the response in assay [2], the EC50, lay at 27.2 nM. The Emax in assay [2] (setting [3]) amounted to 101%.

As to `CC(C)C(=O)NC1CCc2c(c3cc(C#N)ccc3n2Cc2ccccc2NS(C)(=O)=O)C1` (stereo not drawn) [Example 113, N-[6-Cyano-9-(2-methanesulfonylamino-benzyl)-2,3,4,9-tetrahydro-1H-carbazol-3-yl]-isobutyramide], in assay [1], the Ki worked out at 21.4 nM. Further, in assay [2], the midpoint of the response, the EC50, lay at 35.8 nM. Besides, in assay [2] (setting [3]), the Emax is 97.7%.

Consider `CC(C)C(=O)NC1CCc2c(c3cc(C#N)ccc3n2Cc2ccccc2N(C)C)C1` (stereo not drawn) [Example 114, N-[6-Cyano-9-furan-(2-dimethylamino-benzyl)-2,3,4,9-tetrahydro-1H-carbazol-3-yl]-isobutyramide], for which, in assay [1], the inhibitory constant (Ki) turned out to be 20.8 nM. Moreover, the EC50 in assay [2] amounted to 98.7 nM. In addition, the Emax in assay [2] (setting [3]) is 118%.

In turn, `CC(C)C(=O)NC1CCc2c(c3cc(C#N)c(F)cc3n2Cc2cccc(F)c2)C1` (stereo not drawn) [Example 115, N-[6-Cyano-7-fluoro-9-(3-fluoro-benzyl)-2,3,4,9-tetrahydro-1H-carbazol-3-yl]-isobutyramide] came in with a Ki in assay [1] of 3.2 nM. The compound also returned a half-maximal effective concentration (EC50) in assay [2] of 4.3 nM. The Emax in assay [2] (setting [3]) is 74.7%.

`CC(C)C(=O)NC1CCc2c(c3c(F)c(C#N)ccc3n2Cc2cccc(F)c2)C1` (stereo not drawn) [Example 116, N-[6-Cyano-5-fluoro-9-(3-fluoro-benzyl)-2,3,4,9-tetrahydro-1H-carbazol-3-yl]-isobutyramide] had a Ki in assay [1] of 3.4 nM. In assay [2], it took 2.7 nM to reach a half-maximal effect (EC50). The Emax in assay [2] (setting [3]) turned out to be 78.3%.

`CC(C)C(=O)NC1CCc2c(c3c(Cl)c(C#N)ccc3n2Cc2cccc(F)c2)C1` (stereo not drawn) [Example 117, N-[5-Chloro-6-cyano-9-(3-fluoro-benzyl)-2,3,4,9-tetrahydro-1H-carbazol-3-yl]-isobutyramide]: the Ki in assay [1] came to 4.5 nM. Besides, a half-maximal effect in assay [2] (EC50) was put at 12 nM. In assay [2] (setting [3]), the Emax came to 76.7%.

Turning to `CC(C)C(=O)NC1CCc2c(c3cc(C#N)c(Cl)cc3n2Cc2cccc(F)c2)C1` (stereo not drawn) [Example 118, N-[7-Chloro-6-cyano-9-(3-fluoro-benzyl)-2,3,4,9-tetrahydro-1H-carbazol-3-yl]-isobutyramide], the inhibition constant (Ki) in assay [1] amounted to 5.9 nM. This compound also yielded a concentration for a half-maximal effect (EC50) in assay [2] of 31.7 nM. Further, the Emax in assay [2] (setting [3]) was 124%.

As for `CC(C)C(=O)NC1CCc2c(c3cc(C#N)cc(Cl)c3n2Cc2cccc(F)c2)C1` (stereo not drawn) [Example 119, N-[8-Chloro-6-cyano-9-(3-fluoro-benzyl)-2,3,4,9-tetrahydro-1H-carbazol-3-yl]-isobutyramide], the inhibitory constant (Ki) in assay [1] (setting [4]) was 7.3 nM. The Emax in assay [2] (setting [5]) is 99.1%. The concentration giving a half-maximal response (EC50) in assay [2] (setting [6]) turned out to be 34.2 nM.

Consider `CC(C)C(=O)NC1CCc2c(c3cc(Br)cc(F)c3n2Cc2cccc(F)c2)C1` (stereo not drawn) [Example 120, N-[6-Bromo-8-fluoro-9-(3-fluoro-benzyl)-2,3,4,9-tetrahydro-1H-carbazol-3-yl]-isobutyramide], for which, in assay [1], the inhibition constant (Ki) worked out at 7 nM. In addition, in assay [2], the EC50 amounted to 51.4 nM. The Emax in assay [2] (setting [3]) worked out at 101%.

For the compound `CC(C)C(=O)NC1CCc2c(c3cc(C#N)cc(F)c3n2Cc2cccc(F)c2)C1` (stereo not drawn) [Example 121, N-[6-Cyano-8-fluoro-9-(3-fluoro-benzyl)-2,3,4,9-tetrahydro-1H-carbazol-3-yl]-isobutyramide], in assay [1], the Ki amounted to 2.9 nM. The compound also displayed an EC50 in assay [2] of 6.2 nM. Further, the Emax in assay [2] (setting [3]) worked out at 110%.

In assay [1], `CC(C)C(=O)N[C@@H]1CCc2c(c3cc(-c4nnc(N)s4)ccc3n2Cc2cccc(F)c2)C1` [Example 126, (R)-N-[6-(5-Amino[1,3,4]thiadiazol-2-yl)-9-(3-fluorobenzyl)-2,3,4,9-tetrahydro-1H-carbazol-3-yl]isobutyramide] had a Ki of 19 nM. In assay [2], this compound displayed a concentration for a half-maximal effect (EC50) of 31.3 nM. Besides, the Emax in assay [2] (setting [3]) was determined as 87%.

Regarding `CC(C)C(=O)N[C@@H]1CCc2c(c3cc(-c4nncs4)ccc3n2Cc2cccc(F)c2)C1` [Example 127, (R)-N-[9-(3-Fluorobenzyl)-6-[1,3,4]thiadiazole-2-yl-2,3,4,9-tetrahydro-1H-carbazol-3-yl]isobutyramide], the Ki in assay [1] (setting [4]) came to 10.4 nM. Further, the Emax in assay [2] (setting [5]) worked out at 72.2%. For the same compound, the EC50 in assay [2] (setting [6]) was determined as 21 nM.

In the case of `Cc1csc(-c2ccc3c(c2)c2c(n3Cc3cccc(F)c3)CC[C@@H](NC(=O)C(C)C)C2)n1` [Example 128, (R)-N-[9-(3-Fluorobenzyl)-6-(4-methylthiazol-2-yl)-2,3,4,9-tetrahydro-1H-carbazol-3-yl]isobutyramide], in assay [1], the Ki was determined as 43 nM. This compound displayed an EC50 in assay [2] of 236 nM. Also, the Emax in assay [2] (setting [3]) amounted to 72.5%.

On to `Cc1nc(-c2ccc3c(c2)c2c(n3Cc3cccc(F)c3)CC[C@@H](NC(=O)C(C)C)C2)sc1C` [Example 129], for which, in assay [1], the affinity corresponds to a Ki of 196 nM. Further, the half-maximal effective concentration (EC50) in assay [2] is 73.6 nM. Moreover, the Emax in assay [2] (setting [3]) was determined as 65.5%.

Turning to `CC(C)C(=O)NC1CCc2c(c3cc(-c4cccnc4)ccc3n2Cc2cccc(F)c2)C1` (stereo not drawn) [Example 132], in assay [1], the affinity, expressed as Ki, was 7.4 nM. In assay [2], this compound came in with a concentration for a half-maximal effect (EC50) of 5.4 nM. The Emax in assay [2] (setting [3]) was 83.9%.
